Measurements published in patent US8859608B2, “Spiro amino compounds suitable for the treatment of inter alia sleep disorders and drug addiction” (Rottapharm Biotech S.R.L., priority 2009, dated 2014).

target: T1, human OX1 receptor (Homo sapiens, UniProt O43613); assay: FLIPR measurement of intracellular calcium, antagonistic activity at OX1; conditions: pKb OX1, CHO cells with human recombinant OX1, activated with orexin-A 3 nM; 1 nM-1 μM range; modified Cheng Prusoff
T1 sequence (O43613 1-425): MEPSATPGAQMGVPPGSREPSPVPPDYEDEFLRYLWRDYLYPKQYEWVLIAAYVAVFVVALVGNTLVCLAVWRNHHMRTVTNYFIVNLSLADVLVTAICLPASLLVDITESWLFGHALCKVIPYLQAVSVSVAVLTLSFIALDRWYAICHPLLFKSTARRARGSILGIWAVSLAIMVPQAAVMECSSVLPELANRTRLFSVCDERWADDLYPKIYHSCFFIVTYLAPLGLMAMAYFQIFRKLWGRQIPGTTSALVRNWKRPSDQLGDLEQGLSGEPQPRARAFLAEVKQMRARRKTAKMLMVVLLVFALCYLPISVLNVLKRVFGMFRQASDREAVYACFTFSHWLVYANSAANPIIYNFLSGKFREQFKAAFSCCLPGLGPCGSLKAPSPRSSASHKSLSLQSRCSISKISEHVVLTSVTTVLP
Description: Thus the plate was loaded with the calcium dye (Fluo-4NW/probenecid in HBSS, Hepes 20 mM, pH 7,4; Invitrogen) at 37° C. for 60 min. Afterward the temperature was equilibrated at 22° C. for 15 min and the [Ca2+]i measured directly on the plate by using a fluorescent plate reader (CeliLux Perkin Elmer).
After 5 min CHO cells were activated with orexin-A, 3 nM while HEK-293 cells were activated with orexin-B, 10 nM.
The antagonistic activity has been expressed as pKb (co-logarithm of the apparent dissociation constant calculated by using the modified Cheng Prusoff equation).

Compared with `O=C(c1c(F)cccc1-n1nccn1)N1CCC2(CC2)C[C@H]1CNc1ccc(Cl)cn1` [Compound 31, (S)-(5-(((5-chloropyridin-2-yl)amino)methyl)-6-azaspiro[2.5]octan-6-yl)(2-fluoro-6-(2H-1,2,3-triazol-2-yl)phenyl)methanone], `O=C(c1ccccc1-n1nccn1)N1CCC2(CC2)C[C@H]1CNc1ccc(Cl)cn1` [Compound 28, (S)-(2-(2H-1,2,3-triazol-2-yl)phenyl)(5-(((5-chloropyridin-2-yl)amino)methyl)-6-azaspiro[2.5]octan-6-yl)methanone] is 1.6-fold higher in Kb: 15.8 nM for the first, 25.1 nM for the second.

`Cc1nc(C(=O)N2CCC3(CC3)C[C@H]2CNc2nc(F)cc(F)n2)c(-c2ccccc2)s1` [Compound 24, (S)-(5-(((4,6-difluoropyrimidin-2-yl)amino)methyl)-6-azaspiro[2.5]octan-6-yl)(2-methyl-5-phenylthiazol-4-yl)methanone] and `Cc1ccnc(NC[C@@H]2CC3(CCN2C(=O)c2nc(C)sc2-c2ccccc2)CC3)n1` [Compound 21, (S)-(2-methyl-5-phenylthiazol-4-yl)(5-(((4-methylpyrimidin-2-yl)amino)methyl)-6-azaspiro[2.5]octan-6-yl)methanone] are within 1.5-fold of each other in Kb: 100 nM for the first, 126 nM for the second.

Going from `O=C(c1c(F)cccc1-c1ccccn1)N1CCC2(CC2)C[C@H]1CNc1ccc(Cl)cn1` [Compound 34, (S)-(5-(((5-chloropyridin-2-yl)amino)methyl)-6-azaspiro[2.5]octan-6-yl)(2-fluoro-6-(pyridin-2-yl)phenyl)methanone] to `O=C(c1cc(F)ccc1-c1ccccn1)N1CCC2(CC2)C[C@H]1CNc1ccc(Cl)cn1` [Compound 32, (S)-(5-(((5-chloropyridin-2-yl)amino)methyl)-6-azaspiro[2.5]octan-6-yl)(5-fluoro-2-(pyridin-2-yl)phenyl)methanone], the Kb rises from 20 nM to 63.1 nM (3.2-fold).

`Cc1ccc(-n2nccn2)c(C(=O)N2CCC3(CC3)C[C@H]2CNc2ccc(C(F)(F)F)cn2)c1` [Compound 26, (S)-(5-methyl-2-(2H-1,2,3-triazol-2-yl)phenyl)(5-(((5-(trifluoromethyl)pyridin-2-yl)amino)methyl)-6-azaspiro[2.5]octan-6-yl)methanone] and `Cc1ccc(-n2nccn2)c(C(=O)N2CCC3(CC3)CC2CNc2ccc(Cl)cn2)c1` (racemic) [Compound 11, (±)(5-((5-chloropyridin-2-ylamino)methyl)-6-azaspiro[2.5]octan-6-yl)(5-methyl-2-(2H-1,2,3-triazol-2-yl)phenyl)methanone] are within 1.5-fold of each other in Kb: 25.1 nM for the first, 31.6 nM for the second.

Compared with `Cc1ccc(-c2ccccn2)c(C(=O)N2CCC3(CC3)C[C@H]2CNc2ccc(Cl)cn2)c1` [Compound 33, (S)-(5-(((5-chloropyridin-2-yl)amino)methyl)-6-azaspiro[2.5]octan-6-yl)(5-methyl-2-(pyridin-2-yl)phenyl)methanone], `Cc1ccc(-c2ncccn2)c(C(=O)N2CCC3(CC3)C[C@H]2CNc2ccc(Cl)cn2)c1` (single isomer, unassigned) [Compound 13] is 16-fold higher in Kb: 1.58 nM for the first, 25.1 nM for the second.

Going from `O=C(c1cc(F)ccc1-c1ncccn1)N1CCC2(CC2)C[C@H]1CNc1ccc(Cl)cn1` [Compound 44, (S)-(5-(((5-chloropyridin-2-yl)amino)methyl)-6-azaspiro[2.5]octan-6-yl)(5-fluoro-2-(pyrimidin-2-yl)phenyl)methanone] to `Cc1ccc(-c2ncccn2)c(C(=O)N2CCC3(CC3)CC2CNc2ccc(Cl)cn2)c1` (racemic) [Compound 12, (±)(5-((5-chloropyridin-2-ylamino)methyl)-6-azaspiro[2.5]octan-6-yl)(5-methyl-2-(pyrimidin-2-yl)phenyl)methanone], the Kb rises from 15.8 nM to 50.1 nM (3.2-fold).

Going from `Cc1nc(C(=O)N2CCC3(CC3)CC2CNc2ccc(Cl)cn2)c(-c2ccc(F)cc2)s1` (racemic) [Compound 10, (±) (5-((5-chloropyridin-2-ylamino)methyl)-6-azaspiro[2.5]octan-6-yl)(5-(4-fluorophenyl)-2-methylthiazol-4-yl)methanone] to `Cc1nc(C(=O)N2CCC3(CC3)CC2CNc2ccc(Cl)cn2)c(-c2ccccc2)s1` (racemic) [Compound 4, (±) (5-((5-chloropyridin-2-ylamino)methyl)-6-azaspiro[2.5]octan-6-yl)(2-methyl-5-phenylthiazol-4-yl)methanone], the Kb falls from 39.8 nM to 25.1 nM (1.6-fold).

`Cc1cnc(NC[C@@H]2CC3(CCN2C(=O)c2nc(C)sc2-c2ccccc2)CC3)nc1` [Compound 23, (S)-(2-methyl-5-phenylthiazol-4-yl)(5-(((5-methylpyrimidin-2-yl)amino)methyl)-6-azaspiro[2.5]octan-6-yl)methanone] and `Cc1cccc(NCC2CC3(CCN2C(=O)c2nc(C)sc2-c2ccccc2)CC3)n1` (single isomer, unassigned) [Compound 3, (2-methyl-5-phenylthiazol-4-yl)(5-((6-methylpyridin-2-ylamino)methyl)-6-azaspiro[2.5]octan-6-yl)methanone] are within 1.5-fold of each other in Kb: 50.1 nM for the first, 39.8 nM for the second.

First: O=C(c1ccccc1-c1cnccn1)N1CCC2(CC2)C[C@H]1CNc1ccc(Cl)cn1 [Compound 30, (S)-(5-(((5-chloropyridin-2-yl)amino)methyl)-6-azaspiro[2.5]octan-6-yl)(2-(pyrazin-2-yl)phenyl)methanone]
Second: O=C(c1ccccc1-c1ncccn1)N1CCC2(CC2)C[C@H]1CNc1ccc(Cl)cn1 [Compound 40, (S)-(5-(((5-chloropyridin-2-yl)amino)methyl)-6-azaspiro[2.5]octan-6-yl)(2-(pyrimidin-2-yl)phenyl)methanone]
The Kb of the first is 2-fold higher: 63.1 nM for the first, 31.6 nM for the second.

Going from `Cc1ccc(-n2nccn2)c(C(=O)N2CCC3(CC3)C[C@H]2CNc2cccc(Cl)n2)c1` [Compound 19, (S)-(5-(((6-chloropyridin-2-yl)amino)methyl)-6-azaspiro[2.5]octan-6-yl)(5-methyl-2-(2H-1,2,3-triazol-2-yl)phenyl)methanone] to `Cc1ccc(-n2nccn2)c(C(=O)N2CCC3(CC3)C[C@H]2CNc2cccc(C(F)(F)F)n2)c1` [Compound 20, (S)-(5-methyl-2-(2H-1,2,3-triazol-2-yl)phenyl)(5-(((6-(trifluoromethyl)pyridin-2-yl)amino)methyl)-6-azaspiro[2.5]octan-6-yl)methanone], the Kb falls from 126 nM to 50.1 nM (2.5-fold).

First: Cc1ccc(-c2cnccn2)c(C(=O)N2CCC3(CC3)C[C@H]2CNc2cccc(C(F)(F)F)n2)c1 [Compound 43, (S)-(5-methyl-2-(pyrazin-2-yl)phenyl)(5-(((6-(trifluoromethyl)pyridin-2-yl)amino)methyl)-6-azaspiro[2.5]octan-6-yl)methanone]
Second: Cc1ccc(-c2cnccn2)c(C(=O)N2CCC3(CC3)C[C@H]2CNc2cccc(Cl)n2)c1 [Compound 42, (S)-(5-(((6-chloropyridin-2-yl)amino)methyl)-6-azaspiro[2.5]octan-6-yl)(5-methyl-2-(pyrazin-2-yl)phenyl)methanone]
The Kb of the first is 2.5-fold lower: 10 nM for the first, 25.1 nM for the second.

Going from `O=C(c1ccccc1-c1ccccc1)N1CCC2(CC2)C[C@H]1CNc1ccc(Cl)cn1` [Compound 38, (S)-[1,1′-biphenyl]-2-yl(5-(((5-chloropyridin-2-yl)amino)methyl)-6-azaspiro[2.5]octan-6-yl)methanone] to `Cc1nc(C(=O)N2CCC3(CCCC3)CC2CNc2ccc(Cl)cn2)c(-c2ccccc2)s1` (racemic) [Compound 55, (±)(7-(((5-chloropyridin-2-yl)amino)methyl)-8-azaspiro[4.5]decan-8-yl)(2-methyl-5-phenylthiazol-4-yl)methanone], the Kb rises from 20 nM to 39.8 nM (2-fold).

First: Cc1cccc(NCC2CC3(CCCC3)CCN2C(=O)c2nc(C)sc2-c2ccccc2)n1 (racemic) [Compound 54, (±)(2-methyl-5-phenylthiazol-4-yl)(7-(((6-methylpyridin-2-4amino)methyl)-8-azaspiro[4.5]decan-8-yl)methanone]
Second: Cc1nc(C(=O)N2CCC3(CC3)C[C@H]2CNc2cccc(F)n2)c(-c2ccccc2)s1 [Compound 25, (S)-(5-(((6-fluoropyridin-2-yl)amino)methyl)-6-azaspiro[2.5]octan-6-yl)(2-methyl-5-phenylthiazol-4-yl)methanone]
The Kb of the first is 1.6-fold higher: 63.1 nM for the first, 39.8 nM for the second.

Going from `Cc1ccc(-c2ncccn2)c(C(=O)N2CCC3(CC3)C[C@H]2CNc2ccc(C(F)(F)F)cn2)c1` [Compound 27, (S)-(5-methyl-2-(pyrimidin-2-yl)phenyl)(5-(((5-(trifluoromethyl)pyridin-2-yl)amino)methyl)-6-azaspiro[2.5]octan-6-yl)methanone] to `Cc1ccc(-c2ncccn2)c(C(=O)N2CCC3(CC3)C[C@H]2CNc2cccc(Cl)n2)c1` [Compound 41, (S)-(5-(((6-chloropyridin-2-yl)amino)methyl)-6-azaspiro[2.5]octan-6-yl)(5-methyl-2-(pyrimidin-2-yl)phenyl)methanone], the Kb rises from 12.6 nM to 63.1 nM (5-fold).

First: O=C(c1cc(F)ccc1-n1nccn1)N1CCC2(CC2)C[C@H]1CNc1ccc(Cl)cn1 [Compound 29, (S)-(5-(((5-chloropyridin-2-yl)amino)methyl)-6-azaspiro[2.5]octan-6-yl)(5-fluoro-2-(2H-1,2,3-triazol-2-yl)phenyl)methanone]
Second: O=C(c1c(F)cccc1-c1ncccn1)N1CCC2(CC2)C[C@H]1CNc1ccc(Cl)cn1 [Compound 45, (S)-(5-(((5-chloropyridin-2-yl)amino)methyl)-6-azaspiro[2.5]octan-6-yl)(2-fluoro-6-(pyrimidin-2-yl)phenyl)methanone]
The Kb of the first is 3.2-fold higher: 31.6 nM for the first, 10 nM for the second.

Compound `Cc1nc(C(=O)N2CCC3(CC3)C[C@H]2CNc2ccc(F)cn2)c(-c2ccccc2)s1` [Compound 16, (S)-(5-(((5-fluoropyridin-2-yl)amino)methyl)-6-azaspiro[2.5]octan-6-yl)(2-methyl-5-phenylthiazol-4-yl)methanone] has a Kb of 63.1 nM.
